From PubChem BioAssay (NCI)
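48-hour exposure; five concentrations; linearly interpolated endpoints. At the GI50, growth is halved. TGI: concentration producing complete growth inhibition.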

Tests used:
Assay in all cases: growth of human tumour cells (NCI), 48 h
UACC-62 melanoma = system: UACC-62 melanoma
SK-OV-3 ovarian = system: SK-OV-3 ovarian
MCF7 breast = system: MCF7 breast
COLO 205 colon = system: COLO 205 colon
MALME-3M melanoma = system: MALME-3M melanoma
CAKI-1 renal = system: CAKI-1 renal
T-47D breast = system: T-47D breast
EKVX NSCLC = system: EKVX NSCLC
NCI-H460 lung = system: NCI-H460 lung
NCI-H522 lung = system: NCI-H522 lung
NCI-H23 lung = system: NCI-H23 lung
HS 578T breast = system: HS 578T breast
LOX IMVI melanoma = system: LOX IMVI melanoma
HCT-15 colon = system: HCT-15 colon
OVCAR-8 ovarian = system: OVCAR-8 ovarian
HOP-92 NSCLC = system: HOP-92 NSCLC
SN12C renal = system: SN12C renal
U251 CNS = system: U251 CNS
NCI/ADR-RES ovarian = system: NCI/ADR-RES ovarian
SF-268 CNS = system: SF-268 CNS
SK-MEL-2 melanoma = system: SK-MEL-2 melanoma
SF-539 CNS = system: SF-539 CNS
RXF 393 renal = system: RXF 393 renal
OVCAR-5 ovarian = system: OVCAR-5 ovarian
HCC-2998 colon = system: HCC-2998 colon
UACC-257 melanoma = system: UACC-257 melanoma
HL-60(TB) leukemia = system: HL-60(TB) leukemia
OVCAR-4 ovarian = system: OVCAR-4 ovarian
HOP-62 NSCLC = system: HOP-62 NSCLC
RPMI-8226 leukemia = system: RPMI-8226 leukemia
PC-3 prostate = system: PC-3 prostate
786-0 renal = system: 786-0 renal
OVCAR-3 ovarian = system: OVCAR-3 ovarian
TK-10 renal = system: TK-10 renal
A498 renal = system: A498 renal
SF-295 CNS = system: SF-295 CNS
BT-549 breast = system: BT-549 breast
SK-MEL-28 melanoma = system: SK-MEL-28 melanoma
DU-145 prostate = system: DU-145 prostate
ACHN renal = system: ACHN renal
MDA-MB-231 breast = system: MDA-MB-231 breast
NCI-H226 lung = system: NCI-H226 lung
SK-MEL-5 melanoma = system: SK-MEL-5 melanoma
K-562 leukemia = system: K-562 leukemia
HCT-116 colon = system: HCT-116 colon
IGROV1 ovarian = system: IGROV1 ovarian
M14 melanoma = system: M14 melanoma
A549 NSCLC = system: A549 NSCLC
CCRF-CEM leukemia = system: CCRF-CEM leukemia
KM12 colon = system: KM12 colon
MOLT-4 leukemia = system: MOLT-4 leukemia
UO-31 renal = system: UO-31 renal
MDA-MB-435 = system: MDA-MB-435
SR leukemia = system: SR leukemia
MDA-MB-468 breast = system: MDA-MB-468 breast
HT29 colon = system: HT29 colon
SNB-75 CNS = system: SNB-75 CNS
SW-620 colon = system: SW-620 colon
SNB-19 CNS = system: SNB-19 CNS

COc1ccc(-c2cc(C(=O)N=Nc3c(O)[nH]c4ccccc34)c3ccccc3n2)cc1
GI50 (UACC-62 melanoma): 9.93 µM | TGI (UACC-62 melanoma): 21.8 µM | GI50 (SK-OV-3 ovarian): 11.6 µM | TGI (SK-OV-3 ovarian): 24.8 µM | GI50 (MCF7 breast): 10.7 µM | TGI (MCF7 breast): 26.3 µM | GI50 (COLO 205 colon): 11.6 µM | TGI (COLO 205 colon): 26.6 µM | GI50 (MALME-3M melanoma): 3.14 µM | TGI (MALME-3M melanoma): 9.99 µM | GI50 (CAKI-1 renal): 2.56 µM | TGI (CAKI-1 renal): 11 µM | GI50 (T-47D breast): 8.61 µM | TGI (T-47D breast): 27.2 µM | TGI (EKVX NSCLC): 22.5 µM | GI50 (NCI-H460 lung): 3.32 µM | TGI (NCI-H460 lung): 11.4 µM | GI50 (NCI-H522 lung): 1.88 µM | TGI (NCI-H522 lung): 4.71 µM | GI50 (NCI-H23 lung): 2.91 µM | TGI (NCI-H23 lung): 11.4 µM | GI50 (HS 578T breast): 14 µM | TGI (HS 578T breast): 65.7 µM | GI50 (LOX IMVI melanoma): 6.17 µM | TGI (LOX IMVI melanoma): 19.3 µM | GI50 (HCT-15 colon): 10.3 µM | TGI (HCT-15 colon): 24.7 µM | GI50 (OVCAR-8 ovarian): 3.13 µM | TGI (OVCAR-8 ovarian): 12.4 µM | GI50 (HOP-92 NSCLC): 3.26 µM | TGI (HOP-92 NSCLC): 16.7 µM | GI50 (SN12C renal): 11.3 µM | TGI (SN12C renal): 24.4 µM | GI50 (U251 CNS): 2.34 µM | TGI (U251 CNS): 6.37 µM | GI50 (NCI/ADR-RES ovarian): 3.48 µM | TGI (NCI/ADR-RES ovarian): 15 µM | GI50 (SF-268 CNS): 4.43 µM | TGI (SF-268 CNS): 20.8 µM | GI50 (SK-MEL-2 melanoma): 16 µM | TGI (SK-MEL-2 melanoma): 35.2 µM | GI50 (SF-539 CNS): 3.2 µM | TGI (SF-539 CNS): 10.2 µM | GI50 (RXF 393 renal): 4.16 µM | TGI (RXF 393 renal): 15.4 µM | GI50 (OVCAR-5 ovarian): 5.75 µM | TGI (OVCAR-5 ovarian): 18.6 µM | GI50 (HCC-2998 colon): 3.87 µM | TGI (HCC-2998 colon): 13.1 µM | GI50 (UACC-257 melanoma): 9.71 µM | TGI (UACC-257 melanoma): 24.1 µM | GI50 (HL-60(TB) leukemia): 13.1 µM | TGI (HL-60(TB) leukemia): > 100 µM | GI50 (OVCAR-4 ovarian): 5.24 µM | TGI (OVCAR-4 ovarian): 20.9 µM | GI50 (HOP-62 NSCLC): 4.19 µM | TGI (HOP-62 NSCLC): 17.8 µM | GI50 (RPMI-8226 leukemia): 9.32 µM | TGI (RPMI-8226 leukemia): > 100 µM | GI50 (PC-3 prostate): 5.2 µM | TGI (PC-3 prostate): 27.4 µM | GI50 (786-0 renal): 6.88 µM | TGI (786-0 renal): 20.8 µM | GI50 (OVCAR-3 ovarian): 3.63 µM | TGI (OVCAR-3 ovarian): 14.4 µM | GI50 (TK-10 renal): 17.9 µM | TGI (TK-10 renal): 32.9 µM | GI50 (A498 renal): 21.4 µM | TGI (A498 renal): 38.6 µM | GI50 (SF-295 CNS): 11.2 µM | TGI (SF-295 CNS): 24 µM | GI50 (BT-549 breast): 14.5 µM | TGI (BT-549 breast): 29 µM | GI50 (SK-MEL-28 melanoma): 4.26 µM | TGI (SK-MEL-28 melanoma): 14.7 µM | GI50 (DU-145 prostate): 3.27 µM | TGI (DU-145 prostate): 12.1 µM | GI50 (ACHN renal): 11 µM | TGI (ACHN renal): 22.9 µM | GI50 (MDA-MB-231 breast): 2.8 µM | TGI (MDA-MB-231 breast): 10.2 µM | GI50 (NCI-H226 lung): 4.1 µM | TGI (NCI-H226 lung): 19.4 µM | GI50 (SK-MEL-5 melanoma): 12.1 µM | TGI (SK-MEL-5 melanoma): 25 µM | GI50 (K-562 leukemia): 4.53 µM | TGI (K-562 leukemia): > 100 µM | GI50 (HCT-116 colon): 3.18 µM | TGI (HCT-116 colon): 10.7 µM | GI50 (IGROV1 ovarian): 5.07 µM | TGI (IGROV1 ovarian): 18.3 µM | GI50 (M14 melanoma): 4.3 µM | TGI (M14 melanoma): 17.4 µM | GI50 (A549 NSCLC): 2.08 µM | TGI (A549 NSCLC): 4.78 µM | GI50 (CCRF-CEM leukemia): 9.06 µM | TGI (CCRF-CEM leukemia): > 100 µM | GI50 (KM12 colon): 11.1 µM | TGI (KM12 colon): 28.3 µM | GI50 (MOLT-4 leukemia): 4.93 µM | TGI (MOLT-4 leukemia): > 100 µM | GI50 (UO-31 renal): 6 µM | TGI (UO-31 renal): 20.1 µM | GI50 (MDA-MB-435): 3.04 µM | TGI (MDA-MB-435): 12.1 µM | GI50 (SR leukemia): 4.05 µM | TGI (SR leukemia): > 100 µM | GI50 (MDA-MB-468 breast): 4.94 µM | TGI (MDA-MB-468 breast): 17.3 µM | GI50 (HT29 colon): 3.59 µM | TGI (HT29 colon): 12.8 µM | GI50 (SNB-75 CNS): 1.94 µM | TGI (SNB-75 CNS): 15.1 µM | GI50 (SW-620 colon): 3.91 µM | TGI (SW-620 colon): 17.5 µM | GI50 (SNB-19 CNS): 11 µM | TGI (SNB-19 CNS): 23 µM
